In paper PMC4774911, “Biochemical Screening of Five Protein Kinases from Plasmodium falciparum against 14,000 Cell-Active Compounds” (PLoS ONE, 2016):

Legend:
[1] = system: Plasmodium falciparum mitogen-associated protein kinase 2 (MAPK2/MAP2); assay: MAPK2 Kinase-Glo ATP-consumption screen; type: biochemical; conditions: concentrations of 10–30 μM
Experimental: Biochemical assays were performed in white 384-well plates (Nunc). Liquid transfers were done manually with 8-channel pipets. Compounds were initially tested in a single-point screen (final concentration 1 μM). […] The catalytic activity of each kinase was considered proportional to ATP consumed, as determined from measurements of residual [ATP] with the luciferase-based reagent Kinase-Glo (Promega) following incubation. Luminescence (proportional to residual [ATP]) was measured on the plate readers FLx800 (BioTek Instruments, Winooski, VT, USA) and MicroBeta^2 (PerkinElmer, Waltham, MA, USA). Incubation times were chosen to ensure near-complete ATP depletion in the absence of inhibition, thus maximizing the difference in signal between inhibited and uninhibited wells.
Final concentrations were 1 μM ATP, 0.5 mM DTT, 1 mM MgCl2, 0.5 mg/mL BSA, and 10 μg/ml MAP2 in a buffer of 50 mM HEPES (pH 7.0). 0.5 mg/mL histone III-S served as the substrate; 100 μM AMP-PNP, an ATP analog, was used as a control inhibitor. Incubation time was 4 hours.

PKG = PKG (Plasmodium falciparum, UniProt Q8I719); assay: PKG IC50 (supplementary data file of hits); type: biochemical
Source text: Supplement pone.0149996.s003.xls, sheet "combined_1_sorted"

DD2 = system: DD2; parameters: method as in F.J. Gamo et al., Nature 2010; conditions: P. falciparum Dd2; downloaded from ChEMBL ref F.J. Gamo et al., Nature 2010; cited from earlier work
[2] = molecular target: T1, Plasmodium falciparum calcium-dependent protein kinase 4 (CDPK4) (Plasmodium falciparum, UniProt Q8IBS5); assay: CDPK4 Kinase-Glo ATP-consumption screen and dose-response; type: biochemical; conditions: hits below 1 uM
T1 construct: 6-Histidine (N); made in house
T1 sequence (Q8IBS5 1-528): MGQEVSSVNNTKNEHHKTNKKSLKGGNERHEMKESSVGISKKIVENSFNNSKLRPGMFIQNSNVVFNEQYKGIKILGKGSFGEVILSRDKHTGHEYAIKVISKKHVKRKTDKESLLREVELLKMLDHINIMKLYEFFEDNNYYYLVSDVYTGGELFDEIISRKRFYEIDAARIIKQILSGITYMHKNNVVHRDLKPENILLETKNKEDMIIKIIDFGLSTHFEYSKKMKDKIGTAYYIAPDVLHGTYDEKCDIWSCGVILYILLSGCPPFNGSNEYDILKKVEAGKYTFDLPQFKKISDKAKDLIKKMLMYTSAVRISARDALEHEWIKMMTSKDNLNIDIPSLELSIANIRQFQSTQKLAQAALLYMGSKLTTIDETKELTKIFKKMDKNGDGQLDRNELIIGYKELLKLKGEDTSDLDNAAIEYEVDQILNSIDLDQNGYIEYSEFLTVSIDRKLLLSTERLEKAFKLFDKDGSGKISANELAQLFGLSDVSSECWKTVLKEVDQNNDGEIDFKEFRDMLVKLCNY
Outline: (§1)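 ATP consumption by recombinant P. falciparum CDPK4 or CDPK1 measured as residual ATP by Kinase-Glo luminescence, with 40 μM Syntide-2 substrate and 90 min incubation stopped with 5 mM EGTA. Single-point screen at 1 μM final, followed by dose-response; no-substrate wells as negative control.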

P. falciparum 3D7 cells = conditions: P. falciparum 3D7; downloaded from ChEMBL ref F.J. Gamo et al., Nature 2010; cited from earlier work
3D7 PFLDH = system: 3D7 PFLDH; parameters: method as in F.J. Gamo et al., Nature 2010; conditions: downloaded from ChEMBL ref F.J. Gamo et al., Nature 2010; cited from earlier work
HepG2 cells = conditions: HepG2 cells; downloaded from ChEMBL ref F.J. Gamo et al., Nature 2010; cited from earlier work
[3] = molecular target: T2, Plasmodium falciparum calcium-dependent protein kinase 1 (CDPK1) (Plasmodium falciparum, UniProt P62344); assay: CDPK1 Kinase-Glo ATP-consumption screen and dose-response; type: biochemical; conditions: hits below 1 uM; read-out: CDPK1 IC50
T2 construct: 6-Histidine (N); made in house
Outline: as §1

[4] = molecular target: T3, Plasmodium falciparum protein kinase 6 (PK6) (Plasmodium falciparum, UniProt Q8IDW1); assay: biochemical; conditions: hits below 1 uM; read-out: PK6 IC50
T3 construct: 6-Histidine (N); made in house
T3 sequence (Q8IDW1 1-305): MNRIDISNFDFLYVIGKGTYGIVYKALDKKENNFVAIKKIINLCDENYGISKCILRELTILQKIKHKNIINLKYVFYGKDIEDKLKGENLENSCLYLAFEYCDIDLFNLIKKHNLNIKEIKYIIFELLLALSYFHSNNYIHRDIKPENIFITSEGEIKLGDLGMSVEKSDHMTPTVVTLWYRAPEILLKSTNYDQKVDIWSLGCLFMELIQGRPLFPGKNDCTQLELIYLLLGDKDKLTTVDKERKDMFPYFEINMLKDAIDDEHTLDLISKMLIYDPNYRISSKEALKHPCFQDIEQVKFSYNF

Chain of PKG (Q8I719 whole entry): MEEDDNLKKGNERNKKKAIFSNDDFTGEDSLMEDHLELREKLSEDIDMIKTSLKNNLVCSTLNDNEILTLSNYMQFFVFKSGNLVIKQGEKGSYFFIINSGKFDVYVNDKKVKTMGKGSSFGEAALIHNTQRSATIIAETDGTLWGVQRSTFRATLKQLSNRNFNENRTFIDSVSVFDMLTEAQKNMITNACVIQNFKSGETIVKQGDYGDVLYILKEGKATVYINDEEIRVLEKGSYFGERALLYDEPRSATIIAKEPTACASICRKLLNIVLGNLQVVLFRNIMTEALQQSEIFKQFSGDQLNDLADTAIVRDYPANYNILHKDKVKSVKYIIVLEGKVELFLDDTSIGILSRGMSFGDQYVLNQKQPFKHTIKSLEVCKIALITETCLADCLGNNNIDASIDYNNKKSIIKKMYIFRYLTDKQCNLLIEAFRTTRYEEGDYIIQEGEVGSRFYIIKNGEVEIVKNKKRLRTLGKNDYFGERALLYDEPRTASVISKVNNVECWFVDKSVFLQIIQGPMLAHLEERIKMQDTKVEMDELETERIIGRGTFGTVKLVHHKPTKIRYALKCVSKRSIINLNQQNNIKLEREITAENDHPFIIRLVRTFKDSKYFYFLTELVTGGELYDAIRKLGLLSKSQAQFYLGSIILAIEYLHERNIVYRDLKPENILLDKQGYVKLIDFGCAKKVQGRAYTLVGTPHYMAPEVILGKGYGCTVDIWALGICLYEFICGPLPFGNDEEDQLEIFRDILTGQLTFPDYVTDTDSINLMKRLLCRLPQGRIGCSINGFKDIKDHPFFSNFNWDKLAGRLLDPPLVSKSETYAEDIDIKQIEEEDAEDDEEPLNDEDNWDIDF
T2 sequence (P62344 whole entry): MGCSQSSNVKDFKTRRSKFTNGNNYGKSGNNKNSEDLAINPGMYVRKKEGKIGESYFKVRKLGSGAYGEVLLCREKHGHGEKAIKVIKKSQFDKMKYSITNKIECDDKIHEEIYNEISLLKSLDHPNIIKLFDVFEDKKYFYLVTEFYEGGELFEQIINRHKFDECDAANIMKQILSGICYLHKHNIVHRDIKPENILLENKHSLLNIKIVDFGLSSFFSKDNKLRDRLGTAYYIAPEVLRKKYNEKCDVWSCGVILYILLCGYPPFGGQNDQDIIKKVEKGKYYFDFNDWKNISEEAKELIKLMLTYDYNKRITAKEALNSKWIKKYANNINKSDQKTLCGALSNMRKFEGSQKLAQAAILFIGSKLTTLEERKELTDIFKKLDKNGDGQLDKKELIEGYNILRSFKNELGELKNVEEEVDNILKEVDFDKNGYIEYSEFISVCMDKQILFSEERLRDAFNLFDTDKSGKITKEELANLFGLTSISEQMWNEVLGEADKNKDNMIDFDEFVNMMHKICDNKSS

Structure (SMILES) | Inhibition of MAPK2 (tested as possible control inhibitor) [1] | IC50 (PKG) [µM] | PCT_INHB_DD2 (DD2) | IC50 [2] [µM] | PCT_IHB_3D7 (P. falciparum 3D7 cells) | pXC50_3D7 (P. falciparum 3D7 cells) | PCT_INHIB_3D7_PFLDH (3D7 PFLDH) | PCT_INHIB_HEPG2 (HepG2 cells) | IC50 [3] [µM] | IC50 [4] [µM]
Cc1ccc(-n2nc(C(C)(C)C)cc2NC(=O)Nc2ccc(OCCN3CCOCC3)c3ccccc23)cc1 [BIRB796] | None gave consistent inhibition |  |  |  |  |  |  |  |  | 
O=C(Nc1cccc(-c2nn3ncccc3c2-c2ccnc(Nc3ccccc3)n2)c1)c1c(F)cccc1F [TCMDC-134631] |  | > 10 | 96 | 0.352 | 98 | 6.139 | 0 | 51 | 0.039 | 
CC(=O)Nc1cccc(Nc2nccc(-c3c(-c4cccc(NC(=O)c5c(F)cccc5F)c4)nn4ncccc34)n2)c1 [TCMDC-135548] |  | 0.524 | 51 | 0.026 | 96 | 6.736 | 5 | 83 | 0.015 | 0.144
O=C(Nc1cccc(-c2nn3ncccc3c2-c2ccnc(Nc3cccc(-c4cnco4)c3)n2)c1)c1c(F)cccc1F [TCMDC-135550] |  | > 10 | 98 | 0.145 | 97 | 6.779 | 2 | 96 | 0.023 | 
O=C(NCC(c1ccc(C(F)(F)F)cc1)N1CCCC1)c1cc(-c2ccncc2)c(-c2cccc(O)c2)o1.O=C(O)C(F)(F)F (centres unmarked) [TCMDC-135665] |  | 7.64 | 53 | 0.178 | 95 | 5.973 | 0 | 9 | 0.283 | 
COc1cc(Nc2nccc(-c3c(-c4cccc(NC(=O)c5c(F)cccc5F)c4)nn4ccccc34)n2)cc(OC)c1OC [TCMDC-135668] |  | > 10 | 98 | 0.077 | 98 | 7.112 | 4 | 74 | 0.06 | 
COc1cc(Nc2nccc(-c3c(-c4cccc(NC(=O)c5c(F)cccc5F)c4)nn4ncccc34)n2)cc(OC)c1OC [TCMDC-135684] |  | > 10 | 97 | 0.045 | 98 | 7.4867 | 1 | 96 |  | 
CC(c1cccc(Nc2nccc(-c3c(-c4cccc(NC(=O)c5c(F)cccc5F)c4)nn4ncccc34)n2)c1)S(C)(=O)=O (centres unmarked) [TCMDC-135696] |  | > 10 | 98 | 0.024 | 98 | 7.341 | 4 | 79 | 0.095 | 0.375
CS(=O)(=O)Cc1ccc(Nc2nccc(-c3c(-c4cccc(C(=O)Nc5c(F)cccc5F)c4)nn4ccccc34)n2)cc1 [TCMDC-135742] |  | > 10 | 92 | 0.065 | 96 | 6.274 | 0 | 85 | 0.05 | 0.105
O=C(Nc1cccc(-c2nn3ccccc3c2-c2ccnc(Nc3cccc(-c4cnco4)c3)n2)c1)C1CCCCC1 [TCMDC-135769] |  | > 10 | 99 | 0.612 | 95 | 6.584 | 0 | 71 | 0.164 | 
CS(=O)(=O)Cc1ccc(Nc2nccc(-c3c(-c4cccc(NC(=O)C5CCCCC5)c4)nn4ncccc34)n2)cc1 [TCMDC-135812] |  | > 10 | 99 | 0.067 | 98 | 6.697 | 0 | 31 | 0.037 | 0.139
O=C(Nc1cccc(-c2nn3ccccc3c2-c2ccnc(Nc3ccc(C(=O)N4CCOCC4)cc3)n2)c1)c1c(F)cccc1F [TCMDC-135910] |  | > 10 | 97 | 0.311 | 99 | 6.417 | 4 | 72 | 0.092 | 
CCN(CC)CCCOc1ccc(Nc2nccc(-c3c(-c4cccc(NC(=O)c5c(F)cccc5F)c4)nn4ccccc34)n2)cc1F [TCMDC-135920] |  | 0.131 | 99 | 0.086 | 100 | 6.39 | 0 | 86 | 0.429 | 0.302
COCCOc1ccc(Nc2nccc(-c3c(-c4cccc(NC(=O)c5c(F)cccc5F)c4)nn4ccccc34)n2)cc1Cl [TCMDC-135955] |  | > 10 | 97 | 0.853 | 99 | 6.448 | 4 | 53 | 0.152 | 
CCn1c(-c2nonc2N)nc2c(-c3cccc(NC(=O)Nc4cccc(C(F)(F)F)c4)c3)ncc(OCCCN)c21.O=C(O)C(F)(F)F [TCMDC-136178] |  | 2.08 | 70 | 0.342 | 95 | 6.014 | 2 | 21 | 0.015 | 
CCn1c(-c2nonc2N)nc2c(-c3cccc(NC(=O)Nc4ccccc4OC)c3)ncc(OCCCN)c21.O=C(O)C(F)(F)F [TCMDC-136190] |  | 0.783 | 58 | 0.706 | 92 | 5.998 | 0 | 84 | 0.032 | 
CCn1c(-c2nonc2N)nc2c(-c3cccc(NC(=O)Nc4ccccc4Cl)c3)ncc(OCCCN)c21.O=C(O)C(F)(F)F [TCMDC-136192] |  | 0.566 | 74 | 0.138 | 99 | 6.173 | 0 | 2 | 0.072 | 
CC(C)(C)CNCC(C)(C)c1nc(-c2ccc(Cl)c(O)c2)c(-c2ccncc2)[nH]1.Cl [TCMDC-140549] |  | > 10 | 98 | 0.637 | 100 | 6.221 | 5 | 42 | 0.159 | 
CC(C)(CN)c1cc(-c2ccc(Cl)c(O)c2)c(-c2ccncc2)o1.Cl [TCMDC-141334] |  | 0.042 | 97 | 0.433 | 92 | 5.944 | 7 | 44 | 0.013 | 
